Assay results published in ChEMBL document CHEMBL3259565 (ACS Med Chem Lett, 2014).
The source made the active and inactive calls. The rule behind the calls is not given here.

Columns and labels:
[1] = molecular target: T1, Histone-lysine N-methyltransferase EHMT1 (Homo sapiens, UniProt Q9H9B1); experiment: Inhibition of methyltransferase activity of EHMT1 (unknown origin)-mediated dimethylation of a biotinylated histone H3 peptide at lysine-9 by FRET-based LANCE ultra G9a assay
T1 sequence (Q9H9B1 whole entry): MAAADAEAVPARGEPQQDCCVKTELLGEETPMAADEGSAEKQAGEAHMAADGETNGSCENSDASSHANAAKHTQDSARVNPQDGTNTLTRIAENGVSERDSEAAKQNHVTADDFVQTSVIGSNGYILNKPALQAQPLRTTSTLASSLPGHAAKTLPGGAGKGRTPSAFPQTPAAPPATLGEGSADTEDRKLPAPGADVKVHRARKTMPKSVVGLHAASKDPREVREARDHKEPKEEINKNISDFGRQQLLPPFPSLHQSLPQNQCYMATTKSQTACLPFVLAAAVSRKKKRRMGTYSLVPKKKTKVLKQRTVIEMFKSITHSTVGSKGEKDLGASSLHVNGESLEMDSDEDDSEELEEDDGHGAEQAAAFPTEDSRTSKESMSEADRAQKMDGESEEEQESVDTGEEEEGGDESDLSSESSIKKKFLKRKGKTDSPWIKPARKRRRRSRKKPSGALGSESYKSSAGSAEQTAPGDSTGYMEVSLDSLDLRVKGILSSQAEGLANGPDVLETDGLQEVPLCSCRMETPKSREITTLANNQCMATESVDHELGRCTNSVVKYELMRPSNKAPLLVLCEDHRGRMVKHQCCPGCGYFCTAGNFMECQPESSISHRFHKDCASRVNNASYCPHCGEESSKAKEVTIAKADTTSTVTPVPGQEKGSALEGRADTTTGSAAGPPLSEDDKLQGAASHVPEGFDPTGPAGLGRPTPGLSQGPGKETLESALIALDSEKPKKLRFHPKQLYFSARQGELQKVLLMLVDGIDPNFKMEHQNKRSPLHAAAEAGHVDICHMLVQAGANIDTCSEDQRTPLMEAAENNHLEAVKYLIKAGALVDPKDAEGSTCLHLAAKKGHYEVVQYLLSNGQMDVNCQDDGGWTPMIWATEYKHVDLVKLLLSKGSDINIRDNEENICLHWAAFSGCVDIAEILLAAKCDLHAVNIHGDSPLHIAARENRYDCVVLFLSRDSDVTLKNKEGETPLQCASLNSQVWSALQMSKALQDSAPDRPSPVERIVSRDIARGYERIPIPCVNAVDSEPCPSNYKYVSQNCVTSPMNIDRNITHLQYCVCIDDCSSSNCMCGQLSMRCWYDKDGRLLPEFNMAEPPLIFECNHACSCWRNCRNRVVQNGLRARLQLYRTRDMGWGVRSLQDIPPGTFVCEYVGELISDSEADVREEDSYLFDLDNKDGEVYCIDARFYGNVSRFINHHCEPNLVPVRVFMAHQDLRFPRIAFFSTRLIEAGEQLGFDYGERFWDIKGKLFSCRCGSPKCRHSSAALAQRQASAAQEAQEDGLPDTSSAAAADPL

[2] = molecular target: T2, DNA (cytosine-5)-methyltransferase 1 (Homo sapiens, UniProt P26358); experiment: Inhibition of DNMT1 (unknown origin)
T2 sequence (P26358 whole entry): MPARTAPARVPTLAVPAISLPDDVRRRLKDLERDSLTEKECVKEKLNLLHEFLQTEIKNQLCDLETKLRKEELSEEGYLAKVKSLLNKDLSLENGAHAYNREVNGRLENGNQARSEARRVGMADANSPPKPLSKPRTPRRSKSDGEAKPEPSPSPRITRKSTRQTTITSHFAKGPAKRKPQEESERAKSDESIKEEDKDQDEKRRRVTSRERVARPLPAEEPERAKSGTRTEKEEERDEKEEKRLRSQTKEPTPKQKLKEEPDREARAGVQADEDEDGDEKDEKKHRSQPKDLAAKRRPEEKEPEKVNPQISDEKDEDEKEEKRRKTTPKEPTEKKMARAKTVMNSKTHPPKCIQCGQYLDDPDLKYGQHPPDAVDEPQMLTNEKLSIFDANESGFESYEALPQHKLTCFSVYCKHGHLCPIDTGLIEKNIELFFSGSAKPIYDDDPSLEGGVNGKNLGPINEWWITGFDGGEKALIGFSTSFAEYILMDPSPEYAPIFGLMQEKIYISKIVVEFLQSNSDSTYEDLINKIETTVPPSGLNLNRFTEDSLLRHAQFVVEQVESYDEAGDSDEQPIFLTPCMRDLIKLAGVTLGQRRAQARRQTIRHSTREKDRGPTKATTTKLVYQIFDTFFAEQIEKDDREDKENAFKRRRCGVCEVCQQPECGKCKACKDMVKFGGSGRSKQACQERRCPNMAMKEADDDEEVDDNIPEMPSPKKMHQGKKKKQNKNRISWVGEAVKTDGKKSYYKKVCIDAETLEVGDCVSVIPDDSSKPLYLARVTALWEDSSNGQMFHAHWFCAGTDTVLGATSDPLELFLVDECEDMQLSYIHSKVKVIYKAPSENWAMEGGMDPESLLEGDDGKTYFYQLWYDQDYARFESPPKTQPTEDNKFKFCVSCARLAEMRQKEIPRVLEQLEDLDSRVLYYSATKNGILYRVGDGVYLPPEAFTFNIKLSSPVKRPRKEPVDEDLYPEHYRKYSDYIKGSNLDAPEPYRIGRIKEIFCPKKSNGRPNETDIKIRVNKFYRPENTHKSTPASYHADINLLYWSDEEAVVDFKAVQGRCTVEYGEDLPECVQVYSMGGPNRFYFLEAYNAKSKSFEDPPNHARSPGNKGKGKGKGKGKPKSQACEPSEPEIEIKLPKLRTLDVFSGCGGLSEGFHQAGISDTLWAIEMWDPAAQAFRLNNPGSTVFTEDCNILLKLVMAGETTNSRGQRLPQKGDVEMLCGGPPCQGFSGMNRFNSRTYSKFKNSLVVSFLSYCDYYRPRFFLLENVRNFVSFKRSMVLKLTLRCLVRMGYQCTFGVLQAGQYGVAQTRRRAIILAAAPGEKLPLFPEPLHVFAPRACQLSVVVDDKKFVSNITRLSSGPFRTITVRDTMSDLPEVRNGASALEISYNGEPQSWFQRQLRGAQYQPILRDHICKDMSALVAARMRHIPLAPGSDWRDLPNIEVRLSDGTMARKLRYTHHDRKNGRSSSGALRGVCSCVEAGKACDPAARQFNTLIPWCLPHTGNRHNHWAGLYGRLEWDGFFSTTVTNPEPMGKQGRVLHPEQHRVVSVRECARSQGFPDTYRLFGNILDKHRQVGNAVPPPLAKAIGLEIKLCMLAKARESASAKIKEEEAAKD

[3] = molecular target: T3, Histone-lysine N-methyltransferase EHMT1 (Homo sapiens) (UniProt Q9H9B1); experiment: Non-competitive inhibition of methyltransferase activity of EHMT1 (unknown origin)
T3 sequence (whole entry): T1 sequence (Q9H9B1 whole entry)

[4] = molecular target: T4, Histone-lysine N-methyltransferase EHMT2 (Homo sapiens, UniProt Q96KQ7); experiment: Inhibition of methyltransferase activity of EHMT2 (unknown origin)-mediated dimethylation of a biotinylated histone H3 peptide at lysine-9 by FRET-based LANCE ultra G9a assay
T4 sequence (Q96KQ7 whole entry): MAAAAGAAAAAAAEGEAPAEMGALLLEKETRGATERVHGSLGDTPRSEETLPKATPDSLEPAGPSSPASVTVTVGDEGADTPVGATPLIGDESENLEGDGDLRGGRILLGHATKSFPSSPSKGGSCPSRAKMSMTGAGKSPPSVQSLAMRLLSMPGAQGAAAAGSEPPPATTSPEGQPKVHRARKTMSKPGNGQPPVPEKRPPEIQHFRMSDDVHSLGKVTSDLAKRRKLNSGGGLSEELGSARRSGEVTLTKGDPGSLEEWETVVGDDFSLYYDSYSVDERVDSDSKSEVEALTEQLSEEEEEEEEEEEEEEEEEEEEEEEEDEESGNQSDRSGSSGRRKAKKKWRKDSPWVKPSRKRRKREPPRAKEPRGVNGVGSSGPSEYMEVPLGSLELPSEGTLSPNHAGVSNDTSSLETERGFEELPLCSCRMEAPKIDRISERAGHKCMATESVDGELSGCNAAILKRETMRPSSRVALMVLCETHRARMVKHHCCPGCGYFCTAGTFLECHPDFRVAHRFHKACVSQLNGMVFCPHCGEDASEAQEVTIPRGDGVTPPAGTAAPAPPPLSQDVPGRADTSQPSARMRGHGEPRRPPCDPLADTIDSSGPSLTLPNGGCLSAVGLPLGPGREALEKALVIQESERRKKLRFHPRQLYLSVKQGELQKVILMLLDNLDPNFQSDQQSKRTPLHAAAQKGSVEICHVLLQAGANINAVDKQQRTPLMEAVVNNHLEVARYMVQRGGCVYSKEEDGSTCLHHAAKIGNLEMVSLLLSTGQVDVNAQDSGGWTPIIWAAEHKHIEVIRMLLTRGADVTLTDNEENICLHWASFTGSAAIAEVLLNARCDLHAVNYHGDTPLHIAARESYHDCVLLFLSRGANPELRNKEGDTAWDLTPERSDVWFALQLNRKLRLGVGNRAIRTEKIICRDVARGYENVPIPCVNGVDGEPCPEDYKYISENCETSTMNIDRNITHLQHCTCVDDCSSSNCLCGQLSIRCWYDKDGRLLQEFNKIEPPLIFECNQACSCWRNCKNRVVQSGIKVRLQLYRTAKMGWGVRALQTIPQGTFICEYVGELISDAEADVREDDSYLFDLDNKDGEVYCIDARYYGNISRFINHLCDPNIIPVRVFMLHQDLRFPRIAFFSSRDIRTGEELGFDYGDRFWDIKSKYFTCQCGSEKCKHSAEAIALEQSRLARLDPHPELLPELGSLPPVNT

[5] = molecular target: T3, Histone-lysine N-methyltransferase EHMT1 (Homo sapiens); experiment: Inhibition of methyltransferase activity of EHMT1 (unknown origin)-mediated dimethylation of a biotinylated histone H3 peptide at lysine-9 at 100 uM by FRET-based LANCE ultra G9a assay
[6] = molecular target: Protein arginine N-methyltransferase 1 (Homo sapiens) (UniProt Q99873); experiment: Inhibition of PRMT1 (unknown origin) at 200 uM
Chain of Protein arginine N-methyltransferase 1 (Homo sapiens) (Q99873 whole entry, looked up): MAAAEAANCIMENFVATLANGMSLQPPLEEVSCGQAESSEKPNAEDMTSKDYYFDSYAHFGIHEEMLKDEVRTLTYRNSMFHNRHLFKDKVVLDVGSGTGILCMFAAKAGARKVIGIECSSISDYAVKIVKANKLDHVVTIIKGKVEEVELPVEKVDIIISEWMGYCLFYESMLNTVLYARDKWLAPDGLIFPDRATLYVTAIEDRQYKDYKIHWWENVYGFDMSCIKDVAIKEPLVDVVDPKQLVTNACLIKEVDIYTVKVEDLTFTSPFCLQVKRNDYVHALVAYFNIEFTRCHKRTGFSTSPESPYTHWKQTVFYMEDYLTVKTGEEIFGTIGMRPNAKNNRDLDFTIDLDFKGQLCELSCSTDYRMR

[7] = molecular target: T5, Histone-lysine N-methyltransferase SETD7 (Homo sapiens) (UniProt Q8WTS6); experiment: Inhibition of SET7/9 (unknown origin) at 200 uM
T5 sequence (whole entry): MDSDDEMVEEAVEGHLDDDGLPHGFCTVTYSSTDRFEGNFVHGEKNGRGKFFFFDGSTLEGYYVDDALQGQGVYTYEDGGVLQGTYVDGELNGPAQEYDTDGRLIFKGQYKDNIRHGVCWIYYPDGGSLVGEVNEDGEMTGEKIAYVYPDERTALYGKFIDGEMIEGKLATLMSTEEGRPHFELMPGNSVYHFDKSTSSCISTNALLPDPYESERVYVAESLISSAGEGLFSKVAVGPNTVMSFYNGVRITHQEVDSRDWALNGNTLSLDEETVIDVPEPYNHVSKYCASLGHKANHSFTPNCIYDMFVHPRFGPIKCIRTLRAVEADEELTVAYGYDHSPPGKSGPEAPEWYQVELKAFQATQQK

[8] = molecular target: T6, Histone-lysine N-methyltransferase EHMT2 (Homo sapiens) (UniProt Q96KQ7); experiment: Non-competitive inhibition of methyltransferase activity of EHMT2 (unknown origin)
T6 sequence (whole entry): T4 sequence (Q96KQ7 whole entry)

[9] = molecular target: T2, DNA (cytosine-5)-methyltransferase 1; experiment: Inhibition of DNMT1 (unknown origin) at 200 uM

Row | SMILES | IC50 [1] | IC50 [2] | inhibition [3] | IC50 [4] | inhibition [5] | inhibition [6] | inhibition [7] | inhibition [8] | inhibition [9]
1 | Nc1ncnc2c1ncn2[C@@H]1O[C@H](C[C@@H](N)CC[C@H](N)C(=O)O)[C@@H](O)[C@H]1O [SINEFUNGIN] | 513 µM |  |  |  |  |  |  |  | 
2 | Nc1ncnc2c1ncn2[C@@H]1O[C@H](CCCc2ccccc2)[C@@H](O)[C@H]1O | 235 µM |  |  | 190 µM | > 40% |  |  |  | 

Now those with a lower IC50 [1], led by results:

Row | IC50 [1] | IC50 [2] | inhibition [3] | IC50 [4] | inhibition [5] | inhibition [6] | inhibition [7] | inhibition [8] | inhibition [9] | SMILES
3 | 1.5 µM | 179 µM | Active | 1.6 µM | > 40% | inactive | inactive | Active |  | Nc1ncnc2c1ncn2[C@@H]1O[C@H](CC(N)CC2CCCCC2)[C@@H](O)[C@H]1O (stereo partly drawn)
4 | 87 µM |  | Active | 103 µM | > 40% | inactive | inactive | Active | inactive | CCCCC[C@H]1O[C@@H](n2cnc3c(N)ncnc32)[C@H](O)[C@@H]1O
5 | 147 µM |  |  | 157 µM | > 40% |  |  |  |  | COc1ccc(CC(N)C[C@H]2O[C@@H](n3cnc4c(N)ncnc43)[C@H](O)[C@@H]2O)cc1OC (stereo partly drawn)
